Here are results for 1 molecule from patent US10913744B2, “LRRK2 inhibitors and methods of making and using the same” (Dana-Farber Cancer Institute, Inc., priority 2015, dated 2021).

The target in one assay is wild type LRRK2 (Homo sapiens (Human), UniProt Q5S007). The assay is described as follows: LRRK2 enzyme kinase assay, wild type. The format is biochemical. The settings on record: Table 1; ATP at Km 36 μm; read-out: Enzyme IC50 wt.
The target in another assay is PKCγ (Homo sapiens (Human), UniProt P05129). The assay is described as follows: Dundee profiling.

Like-named read-outs stand apart in the source and are kept apart here.

wild type LRRK2, sequence (Q5S007 1326-2527): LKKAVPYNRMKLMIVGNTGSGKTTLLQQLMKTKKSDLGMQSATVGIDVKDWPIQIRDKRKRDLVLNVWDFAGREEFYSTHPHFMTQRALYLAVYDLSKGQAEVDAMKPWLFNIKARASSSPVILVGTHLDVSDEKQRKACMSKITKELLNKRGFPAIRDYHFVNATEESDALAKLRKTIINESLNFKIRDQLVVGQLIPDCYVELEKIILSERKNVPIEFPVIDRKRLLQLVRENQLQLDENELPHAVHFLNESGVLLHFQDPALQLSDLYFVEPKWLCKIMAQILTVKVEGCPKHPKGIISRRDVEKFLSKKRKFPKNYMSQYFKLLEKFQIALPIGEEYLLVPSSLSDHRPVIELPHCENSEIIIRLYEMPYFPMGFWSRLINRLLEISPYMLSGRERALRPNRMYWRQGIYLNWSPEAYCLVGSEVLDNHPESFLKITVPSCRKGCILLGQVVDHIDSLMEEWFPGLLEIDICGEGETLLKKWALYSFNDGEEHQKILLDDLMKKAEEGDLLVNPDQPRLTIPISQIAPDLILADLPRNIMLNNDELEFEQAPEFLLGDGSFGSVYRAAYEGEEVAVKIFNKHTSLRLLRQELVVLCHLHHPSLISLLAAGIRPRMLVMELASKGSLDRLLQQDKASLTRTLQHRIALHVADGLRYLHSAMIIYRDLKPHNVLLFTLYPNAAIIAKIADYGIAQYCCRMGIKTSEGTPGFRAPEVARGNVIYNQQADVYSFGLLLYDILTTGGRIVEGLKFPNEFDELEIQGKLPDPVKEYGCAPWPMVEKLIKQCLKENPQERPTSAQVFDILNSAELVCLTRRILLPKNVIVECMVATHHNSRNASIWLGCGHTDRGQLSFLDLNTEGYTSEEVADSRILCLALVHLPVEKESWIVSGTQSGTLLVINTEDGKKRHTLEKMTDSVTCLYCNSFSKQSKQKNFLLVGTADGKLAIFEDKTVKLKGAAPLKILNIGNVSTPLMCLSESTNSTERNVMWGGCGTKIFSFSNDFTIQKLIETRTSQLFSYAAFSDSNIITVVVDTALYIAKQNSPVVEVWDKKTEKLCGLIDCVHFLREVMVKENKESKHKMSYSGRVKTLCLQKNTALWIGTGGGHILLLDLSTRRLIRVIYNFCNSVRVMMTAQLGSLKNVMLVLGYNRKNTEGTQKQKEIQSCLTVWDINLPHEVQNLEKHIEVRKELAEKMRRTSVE

As usually defined, the IC50 is the concentration that gives 50% inhibition. A word on the remaining activity: it is the signal under treatment as a percentage of the control signal. On to `CNc1nc(Nc2ccc(C(=O)N3CCOCC3)cc2OC)nc2[nH]cc(Cl)c12` [Compound 18, (4-((5-chloro-4-(methylamino)-7H-pyrrolo[2,3-d]pyrimidin-2-yl)amino)-3-methoxyphenyl)(morpholino)methanone], for which the IC50 on wild type LRRK2 was found to be 6.5 nM. Besides, the remaining activity at 1 µM on PKCγ (read-out: percent remaining enzymatic activity, I1, 1 μM) turned out to be 113%; at PKCγ (read-out: percent remaining enzymatic activity, I10), 109%.
